Source: patent publication US8288438B2, “Methods for avoiding edema in the treatment or prevention of PPARγ-responsive diseases, including cancer” (Metabolex, Inc., priority 2005, dated 2012)

Assays:
Assay type in all cases: in vivo
C57BL/6j ob/ob Mice [1] = experiment: anti-diabetic activities in the C57BL/6j ob/ob Mice model (Example 13); conditions: for Insulin Level compared with vehicle: ob/ob mice, oral gavage; for Potency (glucose lowering): oral gavage once a day for 1-4 days, 5 to 125 mg/kg, plasma glucose 6 hours after dose
Method: (§1) The anti-diabetic activities of the compounds were evaluated in the C57BL/6j ob/ob Mice model.
Male, 7-9 weeks old, C57BL/6J ob/ob mice were purchased from The Jackson Laboratory (Bar Harbor, Me., USA). Animals were housed (4-5 mice/cage) under standard laboratory conditions at 22±3° C. temperature and 50±20% relative humidity, and were maintained on a diet of Purina rodent chow and water ad libitum. Prior to treatment, blood was collected from the tail vein of each animal. Mice that had non-fasting plasma glucose levels between 250 and 500 mg/dl were used. Each treatment group consisted of 8-10 mice that were distributed so that the mean glucose levels were equivalent in each group at the start of the study. Mice were dosed orally by gavage once a day for 1-4 days with vehicle and one or more dose of test compound at a dose ranging from 5 to 125 mg/kg. compounds were delivered in a liquid formulation containing 5% (v/v) dimethyl sulfoxide (DMSO), 1% (v/v) Tween 80 (and 0.9% (w/v) methylcellulose. The gavage volume was 10 ml/kg. […] Food intake and body weight were measured daily. […] Louis, Mo., USA). Significant difference between groups (comparing drug-treated to vehicle-treated) was evaluated using the Student unpaired t-test. […]

C57BL/6j ob/ob Mice [2] = experiment: anti-diabetic activities in the C57BL/6j ob/ob Mice model (Example 20); conditions: for minimal effective dose: Mus musculus, oral gavage once a day for 1-4 days, plasma glucose 6 hours after dose, read-out: Potency (glucose lowering); for Insulin Level compared with vehicle: ob/ob mice, oral gavage
Method: as §1
Male, 7-9 weeks old, C57BL/6J ob/ob mice were purchased from The Jackson Laboratory (Bar Harbor, Me., USA). Animals were housed (4-5 mice/cage) under standard laboratory conditions at 22±3° C. temperature and 50±20% relative humidity, and were maintained on a diet of Purina rodent chow and water ad libitum. Prior to treatment, blood was collected from the tail vein of each animal. Mice that had non-fasting plasma glucose levels between 250 and 500 mg/dl were used. Each treatment group consisted of 8-10 mice that were distributed so that the mean glucose levels were equivalent in each group at the start of the study. Mice were dosed orally by gavage once a day for 1-4 days with vehicle and one or more dose of test compound at a dose ranging from 5 to 125 mg/kg. compounds were delivered in a liquid formulation containing 5% (v/v) dimethyl sulfoxide (DMSO), 1% (v/v) Tween 80® and 0.9% (w/v) methylcellulose. The gavage volume was 10 ml/kg. Blood samples were taken at 6 hours after the each dose and analyzed for plasma glucose. Food intake and body weight were measured daily. Plasma glucose concentrations were determined colorimetrically using a commercial glucose oxidase method (Sigma Chemical Co, St. Louis, Mo., USA). Significant difference between groups (comparing drug-treated to vehicle-treated) was evaluated using the Student unpaired t-test.

C57BL/6j ob/ob Mice [3] = experiment: glucose lowering activity of halofenate analogs in C57BL/6J ob/ob mice (Example 14); conditions: 125 mg/kg oral gavage once a day
Method: Male, 8-9 weeks old, C57BL/6J ob/ob mice were purchased from The Jackson Laboratory (Bar Harbor, Me., USA). Animals were housed (4-5 mice/cage) under standard laboratory conditions at 22±3° C. temperature and 50±20% relative humidity, and were maintained on a diet of Purina rodent chow and water ad libitum. Prior to treatment, blood was collected from the tail vein of each animal. Mice that had non-fasting plasma glucose levels between 250 and 500 mg/dl were used. Each treatment group consisted of 8-10 mice that were distributed so that the mean glucose levels were equivalent in each group at the start of the study. Mice were dosed orally by gavage once a day for 1-3 days with either vehicle, (−) halofenic acid, (±) analog 14, 29, 33, 34, 35, 36, 37, or 38 at 125 mg/kg or (−) analog 29, 36, 37 or 38 at 150 mg/kg. compounds were delivered in a liquid formulation containing 5% (v/v) dimethyl sulfoxide (DMSO), 1% (v/v) tween 80 and 0.9% (w/v) methylcellulose. The gavage volume was 10 ml/kg. Blood samples were taken at 6 hours after the each dose and analyzed for plasma glucose. Food intake and body weight were measured daily. Plasma glucose concentrations were determined calorimetrically using glucose oxidase method (Sigma Chemical Co, St. Louis, Mo., USA). Significant difference between groups (comparing drug-treated to vehicle-treated) was evaluated using the Student unpaired t-test.

Row | Compound | Insulin Level compared with vehicle (C57BL/6j ob/ob Mice [1]) | Potency (glucose lowering) (C57BL/6j ob/ob Mice [1]) | minimal effective dose (C57BL/6j ob/ob Mice [2]) | Insulin Level compared with vehicle (C57BL/6j ob/ob Mice [2]) | plasma glucose concentrations vs vehicle (in words) (C57BL/6j ob/ob Mice [3])
1 | O=C(O)C(Oc1ccc(Cl)cc1-c1nc2ccccc2o1)c1ccc(Cl)cc1 (racemic) [Compound I-190] | Lower | +++ (effective for glucose lowering at a dose of ≦25 mg/kg) |  |  | 
2 | CC(=O)NCCOC(=O)C(Oc1cccc(C(F)(F)F)c1)c1ccccc1C(F)(F)F (centres unmarked) [Compound 147] |  |  | > 125 mg/kg | Lower | 
3 | CC(Oc1ccc(C(F)(F)F)cc1-c1nc2ccccc2o1)(C(=O)O)c1ccccc1 (centres unmarked) [Ia-365] | Lower | +++ (effective for glucose lowering at a dose of ≦25 mg/kg) |  |  | 
4 | O=C(NCCOC(=O)C(Oc1cccc(C(F)(F)F)c1)c1ccc(Cl)cc1)c1ccccc1 (racemic) [(±)Analog 36] |  |  |  |  | significantly lowered plasma glucose concentrations at 30 and 54 hours
5 | NC(=O)COC(=O)C(Oc1cccc(C(F)(F)F)c1)c1ccc(Cl)cc1 (racemic) [(±)Analog 37] |  |  |  |  | significantly lowered plasma glucose concentrations at 54 hours
6 | O=C(O)C(Oc1ccc(C(F)(F)F)cc1-c1nc2ccccc2o1)c1ccc(Cl)cc1 (single isomer, unassigned) [Compound I-372] | Lower | +++ (effective for glucose lowering at a dose of ≦25 mg/kg) |  |  | 
7 | O=C(O)C(Oc1ccc(C(F)(F)F)cc1-c1nc2ccccc2o1)c1ccccc1 (racemic) [Compound I-92] | Lower | +++ (effective for glucose lowering at a dose of ≦25 mg/kg) |  |  | 
8 | CCCCOC(=O)C(Oc1cccc(C(F)(F)F)c1)c1ccc(Cl)cc1 (racemic) [(±)Analog 33] |  |  |  |  | significantly lowered plasma glucose concentrations at 6 and 54 hours
9 | COc1ccc(C(Oc2ccc(Cl)cc2-c2nc3ccccc3o2)C(=O)O)cc1 (racemic) [Compound I-193] | Lower | +++ (effective for glucose lowering at a dose of ≦25 mg/kg) |  |  | 
10 | OCC(Oc1ccc(C(F)(F)F)cc1)c1ccc(C(F)(F)F)cc1 (centres unmarked) [Compound 128] |  |  | ≤ 125 mg/kg | Lower | 
11 | CC(=O)NCCOC(=O)C(Oc1ccc(C(F)(F)F)cc1)c1ccc(C(F)(F)F)cc1 (centres unmarked) [Compound 145] |  |  | ≤ 125 mg/kg | Lower | 
12 | O=C(O)C(Oc1ccc(C(F)(F)F)cc1-c1nc2ccccc2o1)c1ccccc1 (centres unmarked) [Compound I-369] | Lower | +++ (effective for glucose lowering at a dose of ≦25 mg/kg) |  |  | 
13 | O=C(O)C(Oc1ccccc1-c1nc2ccccc2o1)c1cccc(C(F)(F)F)c1 (racemic) [Compound I-3] | Lower | + (effective for glucose lowering at the dose of ≧125 mg/kg) |  |  | 
14 | CN(C)CCOC(=O)C(Oc1cccc(C(F)(F)F)c1)c1ccc(Cl)cc1 (racemic) [(±)Analog 35] |  |  |  |  | significantly lowered plasma glucose concentrations at 30 and 54 hours
15 | O=C(O)C(Oc1ccc(C(F)(F)F)cc1-c1nc2ccccc2o1)c1cccc(C(F)(F)F)c1 (racemic) [Compound I-89] | Lower | +++ (effective for glucose lowering at a dose of ≦25 mg/kg) |  |  | 
16 | O=C(O)C(Oc1cccc(C(F)(F)F)c1)c1ccc(C(F)(F)F)cc1 (centres unmarked) [Compound 86] |  |  | ≤ 125 mg/kg | Lower | 
17 | O=C(O)C(Oc1ccc(C(F)(F)F)cc1)c1cccc(C(F)(F)F)c1 (single isomer, unassigned; (-)) [(−)-39, (4-trifluoromethyl-phenoxy)-(3-trifluoromethyl-phenyl)acetic acid] |  |  | ≤ 125 mg/kg | Lower | 

Row | Compound | Insulin Level compared with vehicle (C57BL/6j ob/ob Mice [1]) | Potency (glucose lowering) (C57BL/6j ob/ob Mice [1]) | minimal effective dose (C57BL/6j ob/ob Mice [2]) | Insulin Level compared with vehicle (C57BL/6j ob/ob Mice [2]) | plasma glucose concentrations vs vehicle (in words) (C57BL/6j ob/ob Mice [3])
18 | CC(=O)NCCOC(=O)C(Oc1ccccc1C(F)(F)F)c1ccc(C(F)(F)F)cc1 (centres unmarked) [Compound 146] |  |  | > 125 mg/kg | Lower | 
19 | O=C(O)C(Oc1ccc(C(F)(F)F)cc1Cl)c1cccc(C(F)(F)F)c1 (centres unmarked) [Compound 85] |  |  | ≤ 125 mg/kg | Lower | 
20 | CC(=O)NCCOC(=O)C(Oc1cc(C(F)(F)F)cc(C(F)(F)F)c1)c1ccc(C(F)(F)F)cc1 (centres unmarked) [Compound 143] |  |  | ≤ 125 mg/kg | Lower | 
21 | CC(=O)NCCOC(=O)C(Oc1cccc(C(F)(F)F)c1)c1cccc(C(F)(F)F)c1 (centres unmarked) [Compound 144] |  |  | ≤ 125 mg/kg | Lower | 
22 | O=C(O)C(Oc1ccc(C(F)(F)F)cc1)c1cccc(C(F)(F)F)c1 (racemic) [Compound 39, (4-trifluoromethyl-phenoxy)-(3-trifluoromethyl-phenyl)acetic acid] |  |  |  | Lower | 
23 | CC(=O)NCCOC(=O)C(Oc1ccc(C(F)(F)F)cc1)c1cccc(C(F)(F)F)c1 (centres unmarked) [Compound 136, (4-trifluoromethyl-phenoxy)-(3-trifluoromethyl-phenyl)-acetic acid 2-acetylamino-ethyl ester] |  |  | ≤ 125 mg/kg | Lower | 
24 | O=C(O)C(Oc1ccc(Cl)cc1-c1nc2ccccc2o1)c1cccc(Cl)c1 (racemic) [Compound I-194] | Lower | +++ (effective for glucose lowering at a dose of ≦25 mg/kg) |  |  | 
25 | O=C(O)C(Oc1cc(C(F)(F)F)cc(C(F)(F)F)c1)c1ccc(C(F)(F)F)cc1 (centres unmarked) [Compound 81] |  |  | ≤ 125 mg/kg | Lower | 
26 | CC(=O)NCCOC(=O)C(Oc1cccc(C(F)(F)F)c1)c1ccc(C(F)(F)F)cc1 (centres unmarked) [Compound 142] |  |  | ≤ 125 mg/kg | Lower | 
27 | O=C(O)C(Oc1ccc(C(F)(F)F)cc1)c1ccc(C(F)(F)F)cc1 (centres unmarked) [Compound 83] |  |  | ≤ 125 mg/kg | Lower | 
28 | CC(Oc1ccc(C(F)(F)F)cc1)(C(=O)O)c1ccc(C(F)(F)F)cc1 (centres unmarked) [Compound 121, 2-(4-Trifluoromethyl-phenoxy)-2-(4-trifluoromethyl-phenyl)-propionic acid] |  |  | ≤ 125 mg/kg | Lower | 
29 | O=C(O)C(Oc1ccc(C(F)(F)F)cn1)c1cccc(C(F)(F)F)c1 (centres unmarked) [Compound 100, (3-Trifluoromethyl-phenyl)-(5-trifluoromethyl-pyridin-2-yloxy)-acetic acid] |  |  | ≤ 125 mg/kg | Lower | 
30 | CC(Oc1ccc(C(F)(F)F)cc1-c1nc2ccccc2o1)(C(=O)O)c1ccccc1 (centres unmarked) [Ia-366] | Lower |  |  |  | 
31 | O=C(O)C(Oc1ccccc1-c1nc2ccccc2o1)c1ccc(Cl)cc1 (racemic) [Compound I-1] | Lower | ++ (effective for glucose lowering at a dose of >25 mg/kg but <125 mg/kg) |  |  | 
32 | CC(Oc1ccc(C(F)(F)F)cc1)(C(=O)O)c1cccc(C(F)(F)F)c1 (centres unmarked) [Compound 120, 2-(4-trifluoromethyl-phenoxy)-2-(3-trifluoromethyl-phenyl)propionic acid] |  |  | ≤ 125 mg/kg | Lower | 
33 | O=C(O)C(Oc1ccc(Cl)cc1-c1nc2ccccc2o1)c1cccc(C(F)(F)F)c1 (racemic) [Compound I-191] | Lower | +++ (effective for glucose lowering at a dose of ≦25 mg/kg) |  |  | 
34 | O=C(O)C(Oc1ccc(C(F)(F)F)cc1Cl)c1ccc(C(F)(F)F)cc1 (centres unmarked) [Compound 89] |  |  | ≤ 125 mg/kg | Lower | 
